Source: patent publication US20150174144A1, “TETRACYCLINE COMPOUNDS FOR TREATING NEURODEGENERATIVE DISORDERS” (PARATEK PHARMACEUTICALS, INC., priority 2012, published 2015)
Read-outs that look alike come from different tables or passages of the source.

How the values were obtained:
Fmr1 KO2 mice = experiment: Marble burying test, mouse model of Fragile X Syndrome; format: in vivo; settings: 10 mg/kg/d
Description: The purpose of this study was to test Compound 1 for treating Fragile X Syndrome. This study utilized Fmr1 KO mice, an animal model of Fragile X Syndrome.
The Fmr1 KO mice (C57BL/6 background) were kindly provided the FRAXA Foundation. Mice were housed in groups of the same genotype in a temperature and humidity controlled room with a 12-h light-dark cycle (lights on 7 am to 7 pm). Testing was conducted during the light phase. Food and water were available ad libitum. Testing was conducted on Fmr1 KO mice and their wild-type littermates. They were housed in commercial plastic cages purchased in the UK. Experiments were conducted in line with the requirements of the UK Animals (Scientific Procedures) Act, 1986.
The dosing protocol used is shown below. Mice were dosed at 6-7 weeks by intraperitoneal (i.p.) infusion by osmotic pump (0.5 μl/hour) for 1 week. The solution of 0.9% saline was used as a vehicle, and 10 mice were dosed per each group.

CYP450 = CYP450 inhibition or induction; format: in vitro ADME; settings: pre-clinical ADME studies
MBP-induced EAE = experiment: MBP-induced Lewis rat EAE; format: in vivo; settings: i.p. daily from day 9
From the text: The inhibitory activity of Compound 1 was characterized in both mouse and rat models of EAE. Mice were immunized s.c. with myelin oligodendrocyte glycoprotein (MOG) peptide 35-55 in CFA and later injected i.v. with Pertussis toxin. Mice were randomized at day 10 and given compound i.p. Compounds were subsequently administered daily and the animals assessed for clinical score. Mice were scored as follows: 0=no disease; 1=limp tail; 2=paralysis of one or both hind limbs; 4=paralysis of both hind- and forelimbs. […] Rats were dosed daily i.p. with compound starting day 9. Rats were scored daily and cumulative scores were determined by adding the average daily scores over the experimental period. […] The average daily scores+/−SEM and the cumulative average scores are shown. Cumulative average scores were determined by adding the average daily scores over the experimental period.

Genotoxicity = settings: pre-clinical safety studies
[1] = test system: ferric iron-induced lipid peroxidation among rat brain tissue; experiment: Ferric iron-induced lipid peroxidation in rat brain tissue; format: biochemical
Description: Tetracycline compounds were tested in an in vitro assay of ferric iron-induced lipid peroxidation among rat brain tissue.

[2] = Peroxynitrite-carbonate radical scavenging assay (DHR probe)
Description: Inflammatory conditions are characterized by increasing concentrations of reactive oxygen species. In this study, the ability of Compound 1 to specifically scavenge peroxynitrite-carbonate radicals was determined.
To the first column of a 96-well PCR plate (0.2 mL volume) was added 160 μL of TCWS. One well of the first column would equal one IC50 determination. Typically, test compounds were assayed in duplicate, i.e. two wells of column 1 were filled with each TCWS. To the remaining wells in columns 2-11 was added 80 μL of DWS. Using a multichannel pipettor, column 1 was serially diluted in 2-fold dilutions by removing 80 μL from column 1 and transferring with mixing to column 2. Column 2 was then diluted to column 3 and so on until column 11 where 80 μL of the diluted mixture was removed and discarded. At least 2 wells of row 12 were designated as the 0 test compound control to which 80 μL of DWS was added. One well of row 12 per test compound was designated as the background control to which 80 μL of the TCWS was added.
The plate was covered and incubated for 5 minutes at 37° C. upon which the reaction was initiated by addition of 20 μL of Sin-1 to columns 1-11 using a multichannel pipettor with mixing. The reaction was initiated similarly to the 0 test compound wells of column 12. To the background control wells was added 20 μL of PC buffer. The plate was incubated at 37° C. for 8 minutes (the reaction is linear for 10 minutes) and quenched by addition of 50 μL of AA to all wells with mixing. The plate was placed on ice for 5 minutes. Quenched assay mixtures were stable at room temperature for at least 24 hours.
Each reaction mixture (20 μL) was analyzed for rhodamine 123 product by HPLC using a Phenomenex Luna C18(2) column, 3 um, 4.6×50 mm using an A buffer of water+0.1% TFA and a B buffer of acetonitrile+0.1% TFA and the following gradient method: […]
The absorbance at 280 nm was also recorded to ensure no co-elution of test compound peaks.
Initial examination of the background control samples at the highest test compound concentration were performed to ensure no co-elution of test compound peaks with the product rhodamine 123 at 4 minutes. If co-elution was observed, the compound was not tested until an appropriate HPLC method was developed to separate the product and test compound peaks. The rhodamine 123 AUC was then determined for each test compound concentration and the percent inhibition of rhodamine 123 fluorescence was then determined by the following equation:
% Inhibition=[(AUCo−AUCx)/AUCo]*100
Where AUCo is the AUC of the rhodamine 123 peak at 0 test compound concentration and AUCX is the AUC of the rhodamine 123 peak at each test compound concentration=x.
The standard error of the curve fit for the IC50 was also determined along with the Hill slope. The IC50 determined for uric acid was divided by the IC50 determined for each test compound to generate Uric Acid Equivalents, a measure of the peroxynitrite-carbonate radical scavenging ability relative to uric acid.
Uric Acid Equivalents=[…]

hERG/ion channel = hERG/ion channel (Homo sapiens, UniProt Q12809); experiment: hERG/ion channel assays; settings: pre-clinical safety studies
Chain of hERG/ion channel (Q12809 whole entry): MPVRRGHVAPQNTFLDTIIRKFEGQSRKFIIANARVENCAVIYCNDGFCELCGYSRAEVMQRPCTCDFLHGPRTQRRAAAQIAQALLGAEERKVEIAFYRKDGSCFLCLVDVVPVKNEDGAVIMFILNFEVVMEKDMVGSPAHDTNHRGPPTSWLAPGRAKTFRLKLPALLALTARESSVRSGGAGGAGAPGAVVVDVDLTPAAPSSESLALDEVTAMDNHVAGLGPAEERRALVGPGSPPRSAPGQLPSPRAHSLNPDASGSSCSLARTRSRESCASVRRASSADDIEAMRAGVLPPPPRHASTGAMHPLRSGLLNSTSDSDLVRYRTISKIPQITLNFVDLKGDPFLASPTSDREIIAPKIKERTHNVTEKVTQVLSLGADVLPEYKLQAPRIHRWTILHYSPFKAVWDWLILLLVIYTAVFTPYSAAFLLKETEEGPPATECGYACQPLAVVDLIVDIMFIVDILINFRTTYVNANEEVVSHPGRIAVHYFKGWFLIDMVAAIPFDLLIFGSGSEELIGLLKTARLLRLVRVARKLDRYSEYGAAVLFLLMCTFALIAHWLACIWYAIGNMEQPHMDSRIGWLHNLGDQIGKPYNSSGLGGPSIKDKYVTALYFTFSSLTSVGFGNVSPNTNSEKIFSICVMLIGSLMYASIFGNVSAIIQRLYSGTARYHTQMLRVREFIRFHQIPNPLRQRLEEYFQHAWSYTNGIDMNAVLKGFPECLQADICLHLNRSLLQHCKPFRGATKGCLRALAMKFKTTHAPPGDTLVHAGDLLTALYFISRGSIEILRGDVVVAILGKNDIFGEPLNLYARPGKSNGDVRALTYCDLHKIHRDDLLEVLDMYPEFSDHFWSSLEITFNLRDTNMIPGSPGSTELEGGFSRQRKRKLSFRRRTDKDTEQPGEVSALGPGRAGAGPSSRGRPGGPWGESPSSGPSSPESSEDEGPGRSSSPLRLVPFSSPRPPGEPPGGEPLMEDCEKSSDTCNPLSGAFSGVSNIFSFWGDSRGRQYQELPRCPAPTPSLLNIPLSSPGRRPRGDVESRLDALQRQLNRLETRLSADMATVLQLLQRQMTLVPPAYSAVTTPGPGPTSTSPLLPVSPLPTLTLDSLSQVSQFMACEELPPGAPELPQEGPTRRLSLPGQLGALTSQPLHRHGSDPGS

MS = MS clinical studies, cited from earlier work

| Compound | Marble burying deficit of Fmr1 KO2 mice (Fmr1 KO2 mice) | Effects in CYP450 inhibition or induction (CYP450) | Effect on clinical course of EAE (onset, maximum disease severity) (MBP-induced EAE) | Effects in genotoxicity (Genotoxicity) | Lipid peroxidation (% of Control) ([1]; 1.0 μM) | Lipid peroxidation (% of Control) ([1]; 10 μM) | Lipid peroxidation (% of Control) ([1]; 100 μM) | IC50 ([2]; Sin-1, 37° C., 8 minutes, read-out: IC50, inhibition of oxidation of DHR probe (peroxynitrite-carbonate scavenging)) | Uric Acid Equivalents ([2]; relative to uric acid) | Effects in hERG/ion channel assays (hERG/ion channel) | potential side effects (MS) | potential side effects (MS; listed as minocycline) |
| --- | --- | --- | --- | --- | --- | --- | --- | --- | --- | --- | --- | --- |
| CCc1cc(N(C)C)c2c(c1O)C(=O)C1=C(O)[C@]3(O)C(=O)C(C(N)=O)=C(O)[C@@H](N(C)C)[C@@H]3C[C@@H]1C2 [Compound 1] | significantly rescued | no significant effects | both delayed the onset and inhibited the maximum disease severity more potently than minocycline | no significant effects | 92 % of Control | 68 % of Control | 56 % of Control | 11 µM | 1.13 | no significant effects | – | – |
| CN(C)c1ccc(O)c2c1C[C@H]1C[C@H]3[C@H](N(C)C)C(O)=C(C(N)=O)C(=O)[C@@]3(O)C(O)=C1C2=O [Minocycline, minocycline, reference compound] | – | – | – | – | – | – | – | – | – | – | Mild Nausea | Mild nausea |
